Here are results for eleven compounds from PubChem BioAssay (NCI).

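Step 1: Grow cells in 96-well plates. Step 2: Expose to compound for 48 hours at 5 concentrations. Step 3: Interpolate endpoints linearly; if unreached, use highest concentration. The concentration for 50% growth inhibition is given as GI50. At the TGI there is no net growth.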

Among the test systems are CCRF-CEM leukemia; HCC-2998 colon; HOP-92 NSCLC; K-562 leukemia; MDA-N; NCI-H23 lung; RPMI-8226 leukemia; RXF 393 renal; SF-295 CNS; SK-MEL-28 melanoma; SK-OV-3 ovarian; SNB-19 CNS; UO-31 renal; SNB-75 CNS.
Test in all cases: inhibition of tumour cell growth, NCI panel, 48 h

Consider `COc1cc(CNC(=O)[C@H](Cc2ccc(O)cn2)NC(C)=O)cc(OC)c1`, for which the TGI in the test on CCRF-CEM leukemia was greater than 100 µM; with HCC-2998 colon it was greater than 100 µM; with HOP-92 NSCLC, 75.5 µM; in the test on K-562 leukemia it was greater than 100 µM; in the test with MDA-N it was greater than 100 µM; with NCI-H23 lung, greater than 100 µM. In addition, the TGI with RPMI-8226 leukemia, with RXF 393 renal, in the test with SF-295 CNS, with SK-MEL-28 melanoma, in the test on SK-OV-3 ovarian and in the test on SNB-19 CNS was greater than 100 µM throughout. This compound also showed a TGI in the test on UO-31 renal greater than 100 µM.
With `Cc1nn(-c2ccccc2)c2c1C(c1cc3ccccc3nc1Cl)NC(=S)N2` (stereo not drawn), the TGI in the test on CCRF-CEM leukemia is greater than 100 µM; in the test with HOP-92 NSCLC it was 96.6 µM; with K-562 leukemia, greater than 100 µM; in the test on MDA-N it was greater than 100 µM; in the test with NCI-H23 lung it was greater than 100 µM; in the test on RPMI-8226 leukemia it was 48.7 µM. Also, the TGI is 71.8 µM in the test on RXF 393 renal; greater than 100 µM with SF-295 CNS; greater than 100 µM in the test with SK-OV-3 ovarian; greater than 100 µM in the test with SNB-19 CNS; greater than 100 µM in the test on SNB-75 CNS; 50.4 µM in the test with UO-31 renal.
As for `Cc1cc(N(CCC#N)CCC#N)ccc1/C(N=Nc1ccccc1)=N\NC(=O)c1ccccc1`, the TGI is 61.7 µM in the test with CCRF-CEM leukemia; greater than 100 µM with HCC-2998 colon; 44.7 µM with K-562 leukemia; greater than 100 µM in the test on MDA-N; greater than 100 µM with NCI-H23 lung; greater than 100 µM in the test with RPMI-8226 leukemia. For the same compound, the TGI in the test on RXF 393 renal was greater than 100 µM; with SF-295 CNS, greater than 100 µM; in the test on SK-OV-3 ovarian, greater than 100 µM; in the test with SNB-19 CNS, greater than 100 µM; in the test with SNB-75 CNS, greater than 100 µM; with UO-31 renal, 65.1 µM.
`c1ccc(/N=N\Nc2ccc(-c3nc4ccccc4o3)cc2)nc1`: the TGI in the test on HCC-2998 colon is 55.4 µM; in the test with HOP-92 NSCLC it was greater than 100 µM; in the test on K-562 leukemia, greater than 100 µM; in the test with MDA-N, greater than 100 µM; in the test with NCI-H23 lung it was greater than 100 µM; in the test on SK-MEL-28 melanoma it was greater than 100 µM. For the same compound, the TGI is greater than 100 µM in the test with SK-OV-3 ovarian, greater than 100 µM with SNB-19 CNS, 85.8 µM in the test with SNB-75 CNS and greater than 100 µM in the test with UO-31 renal.
In the case of `Clc1ccc2c(c1)CC1C[N+]3=C(CCCC3)C1=C2` (stereo not drawn), the TGI in the test on CCRF-CEM leukemia, with HOP-92 NSCLC, in the test with K-562 leukemia, in the test on MDA-N, with NCI-H23 lung and in the test on RXF 393 renal was greater than 100 µM each time. Also, the TGI in the test with SF-295 CNS, in the test with SK-MEL-28 melanoma, in the test on SK-OV-3 ovarian, in the test on SNB-19 CNS, in the test on SNB-75 CNS and in the test with UO-31 renal was greater than 100 µM in each case.
Consider `O=c1oc2cc(O)ccc2cc1-c1nc2ccccc2s1`, for which the TGI in the test on CCRF-CEM leukemia was 26.8 µM; with HCC-2998 colon, 66.1 µM; in the test with HOP-92 NSCLC, greater than 100 µM; with K-562 leukemia, greater than 100 µM; in the test with MDA-N it was 49.9 µM; in the test on NCI-H23 lung it was 61.2 µM. Moreover, the TGI in the test on RPMI-8226 leukemia was greater than 100 µM; in the test on RXF 393 renal it was 79.9 µM; in the test on SF-295 CNS, 89.3 µM; in the test with SK-MEL-28 melanoma, greater than 100 µM; with SK-OV-3 ovarian, 78.1 µM; in the test with SNB-19 CNS it was greater than 100 µM. Also, the TGI in the test on UO-31 renal is 47.6 µM.
In the case of `CNC(=O)c1n[nH]n(Cc2ccccc2)c1=S`, the TGI in the test with CCRF-CEM leukemia, in the test on HCC-2998 colon, in the test with K-562 leukemia, in the test with MDA-N, in the test with NCI-H23 lung and in the test with RPMI-8226 leukemia was greater than 100 µM in each case. Further, the TGI in the test on RXF 393 renal, with SF-295 CNS, in the test with SK-MEL-28 melanoma, in the test on SK-OV-3 ovarian, with SNB-19 CNS and in the test with SNB-75 CNS was greater than 100 µM each time. The compound also came in with a TGI in the test with UO-31 renal greater than 100 µM.
With `COc1cc(/C=C/c2sc3ccccc3[n+]2C)ccc1N(C)C`, the GI50 with CCRF-CEM leukemia is 3.76 µM; with HOP-92 NSCLC it was 13 µM; in the test on K-562 leukemia, 1.86 µM; in the test on MDA-N, 7.11 µM; with RPMI-8226 leukemia, 3.15 µM; in the test with SK-MEL-28 melanoma it was 12.4 µM. Besides, the TGI with CCRF-CEM leukemia came to 13.9 µM; with HCC-2998 colon, 53.4 µM; in the test with HOP-92 NSCLC, 34.9 µM; in the test on K-562 leukemia, 6.16 µM; in the test with MDA-N it was 22.2 µM; in the test on NCI-H23 lung, 27.7 µM. Besides, the TGI in the test with RPMI-8226 leukemia was 16.2 µM; in the test on RXF 393 renal, 33.5 µM; in the test with SF-295 CNS, greater than 100 µM; with SK-MEL-28 melanoma it was 25.7 µM; with SK-OV-3 ovarian it was 54.8 µM; in the test with SNB-19 CNS, 26.8 µM.
In the case of `CC(=O)N1CC[N+](C)(CCCCN2c3ccccc3Sc3cc(N=[N+]=[N-])ccc32)CC1`, the TGI with CCRF-CEM leukemia, in the test with HCC-2998 colon, in the test with K-562 leukemia, in the test with MDA-N, with NCI-H23 lung and in the test on RPMI-8226 leukemia was greater than 100 µM throughout. The TGI with RXF 393 renal, in the test on SF-295 CNS, with SK-MEL-28 melanoma, in the test with SK-OV-3 ovarian, with SNB-19 CNS and with SNB-75 CNS was greater than 100 µM throughout. The TGI with UO-31 renal is greater than 100 µM.
As for `N#CC(C#N)=Cc1ccc(C=C2SC3=C(SCCS3)S2)s1`, the TGI in the test with CCRF-CEM leukemia is greater than 100 µM; in the test with HCC-2998 colon, greater than 100 µM; in the test on HOP-92 NSCLC it was greater than 100 µM; in the test on MDA-N, 3.03 µM; with NCI-H23 lung it was 95.3 µM; in the test with RPMI-8226 leukemia, 6.28 µM. Also, the TGI is greater than 100 µM in the test on SF-295 CNS; greater than 100 µM in the test with SK-MEL-28 melanoma; greater than 100 µM in the test on SK-OV-3 ovarian; greater than 100 µM with SNB-19 CNS; 94 µM in the test on SNB-75 CNS; greater than 100 µM with UO-31 renal.
`O=c1[nH]c(=O)n(C2OC(CO)C(O)C2O)cc1OCCc1ccccc1` (stereo not drawn): the TGI in the test on CCRF-CEM leukemia, in the test on HCC-2998 colon, in the test on HOP-92 NSCLC, in the test on MDA-N, in the test with NCI-H23 lung and in the test with RXF 393 renal was greater than 100 µM each time. Further, the TGI with SF-295 CNS, in the test on SK-MEL-28 melanoma, with SK-OV-3 ovarian and with SNB-19 CNS was greater than 100 µM each time.
